What was measured:
[1] = Measurement of hydroscopicity (weight change method); assay type: physicochemical; settings: sealed container, moisture of 70-85%, ambient temperature, 24 hours
Protocol: Hydroscopicity of salts from present disclosure was measured using a weight change method. The test samples were placed in a sealed container with moisture of 70-85% at ambient temperature for 24 hours and their weigh change was measured. All three hydrochloride salts of 5-ALA, 5-MAL and 5-HAL, and 5-ALA TCA were hygroscopic, their weight was increased by 25˜75%.

[2] = tested on: upper surface of the tongue; experiment: Measurement of potential skin irritation/stimulation on tongue surface; assay type: in vivo; design: key: A: no irritation; B: irritation; C: strong irritation; D: very strong irritation; settings: 3 mg on upper surface of the tongue for 3-5 minutes
Protocol: The potential irritation/stimulation of test samples was carried out by applying 3 mg of each sample to the upper surface of the tongue for 3-5 minutes and then evaluated.

A549 cells = experiment: Measurement of PpIX formation in A549 cells in vitro; assay type: cell-based, human
Protocol: Test samples were dissolved with sterile saline to a concentration of 100 mM as stock solution. The stock solution was diluted to desired concentrations with culture medium or phosphate buffered solution (PBS).
A549 cells (ATCC), derived from human lung carcinoma, were grown in F12 medium (Gibco) containing 4.5 g/L glucose, 10% FCS, and penicillin/streptomycin, at 37° C. and 6% CO2 in a humid environment. For measurement purposes, the cells were sub-cultured in 48-well or 96-well dishes to give 5×10^4 cells/well 24 hours prior to incubation with test salts. The cells were washed twice with PBS and test solutions were added to the culture. After cells were incubated for 4, 8 or 24 hours, the medium was detached and the plates were rinsed twice with PBS, and PpIX natural fluorescence was measured at 360±40 nm excitation and 620±40 nm emission (CytoFluor Series 4000, Perspective Biosystems, MA, USA). The experiment was conducted in triplets.

Compound | appearance of sample after moisture exposure [1] | irritation/stimulation on tongue surface ([2]; participant 1) | irritation/stimulation on tongue surface ([2]; participant 2) | irritation/stimulation on tongue surface ([2]; participant 3) | irritation/stimulation on tongue surface ([2]; participant 4) | Activity (relative activity to induce porphyrin formation) (A549 cells; 10 mM, 4 hrs) | Activity (relative activity to induce porphyrin formation) (A549 cells; 10 mM, 8 hrs) | Activity (relative activity to induce porphyrin formation) (A549 cells; 10 mM, 24 hrs) | weight change (weight increase) [1] | Activity (relative activity to induce porphyrin formation) (A549 cells; 0.5 mM, 4 hrs) | Activity (relative activity to induce porphyrin formation) (A549 cells; 0.5 mM, 8 hrs) | Activity (relative activity to induce porphyrin formation) (A549 cells; 0.5 mM, 24 hrs) | Activity (relative activity to induce porphyrin formation) (A549 cells; 1 mM, 4 hrs) | Activity (relative activity to induce porphyrin formation) (A549 cells; 1 mM, 8 hrs) | Activity (relative activity to induce porphyrin formation) (A549 cells; 1 mM, 24 hrs)
5-Aminolevulinic Acid 2,2,2-Trichloroacetate [5-ALA TCA] | turned to a liquid due to deliquescence | B | B | B | B | 1.00 ± 0.02 | 1.30 ± 0.06 | 2.50 ± 0.17 |  |  |  |  |  |  | 
Methyl 5-Aminolevulinate 2,2,2-Trichloroacetate [5-MAL TCA] | unchanged as crystalline solid | B | B | B | B | 1.20 ± 0.04 | 1.25 ± 0.02 | 2.20 ± 0.16 | < 5% |  |  |  |  |  | 
Cl.NCC(=O)CCC(=O)O [5-ALA HCl, 5-aminolevulinic acid hydrochloride, reference compound] | turned to a liquid due to deliquescence | D | C | D | C | 1.00 | 1.42 ± 0.04 | 2.35 ± 0.19 |  |  |  |  |  |  | 
COC(=O)CCC(=O)CN.Cl [5-MAL HCl, methyl 5-aminolevulinate hydrochloride, reference compound] | turned to a liquid due to deliquescence | C | C | C | C | 1.27 ± 0.04 | 1.60 ± 0.12 | 2.22 ± 0.16 |  |  |  |  |  |  | 
Hexyl 5-Aminolevulinate 2,2,2-Trichloroacetate [5-HAL TCA] | unchanged as crystalline solid | B | B | A | B |  |  |  | remained unchanged | 1.15 ± 0.05 | 1.57 ± 0.11 | 2.72 ± 0.10 | ~2 | ~4 | ~10
CCCCCCOC(=O)CCC(=O)CN.Cl [5-HAL HCl, Hexyl 5-aminolevulinate hydrochloride, reference compound] | turned to a liquid due to deliquescence | B | C | C | B |  |  |  |  | 1.20 ± 0.15 | 1.57 ± 0.08 | 2.92 ± 0.30 | ~2 | ~4 | ~10
